This assay has as its target HIF-PH2 (EGLN1) (Homo sapiens (Human), UniProt Q9GZT9). The assay is described as follows: HIF-PH assay (14CO2 capture, peptide-dependent turnover). In kind it is biochemical. Conditions: enzyme inhibition against HIF-PH2; peptide-dependent percent turnover. The source says:
Ketoglutaric acid α-[1-^14C]-sodium salt, alpha-ketoglutaric acid sodium salt, and HPLC purified peptide may be obtained from commercial sources, e.g., Perkin-Elmer (Wellesley Mass.), Sigma-Aldrich, and SynPep Corp. (Dublin Calif.), respectively. […] For example, a HIF peptide for use in the HIF-PH assay is [methoxycoumarin]-[…]-amide. HIF-PH, e.g., HIF-PH2 (EGLN1), can be expressed in, e.g., insect Hi5 cells, and partially purified, e.g., through a SP ion exchange chromatography column. […] Reactions are initiated by addition of HIF-PH enzyme.
The peptide-dependent percent turnover is calculated by subtracting percent turnover in the absence of peptide from percent turnover in the presence of substrate peptide. Percent inhibition and IC50 are calculated using peptide-dependent percent turnover at given inhibitor concentrations. Calculation of IC50 values for each inhibitor is conducted using GraFit software (Erithacus Software Ltd., Surrey UK).
Representative compounds of the disclosure were analyzed using the HIF-PH assay described above.

HIF-PH2 (EGLN1), sequence (Q9GZT9 whole entry): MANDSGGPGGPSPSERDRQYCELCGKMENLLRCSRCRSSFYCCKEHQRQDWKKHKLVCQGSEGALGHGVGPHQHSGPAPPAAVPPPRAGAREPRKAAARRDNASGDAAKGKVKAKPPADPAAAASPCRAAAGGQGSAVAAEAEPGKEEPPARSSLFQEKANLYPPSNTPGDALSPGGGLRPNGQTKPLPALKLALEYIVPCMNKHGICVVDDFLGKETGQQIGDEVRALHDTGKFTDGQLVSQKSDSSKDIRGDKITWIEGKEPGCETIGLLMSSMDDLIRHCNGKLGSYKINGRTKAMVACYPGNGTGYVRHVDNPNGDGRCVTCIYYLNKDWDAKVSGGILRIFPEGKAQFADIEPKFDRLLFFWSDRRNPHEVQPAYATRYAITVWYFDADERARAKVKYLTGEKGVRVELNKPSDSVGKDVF

As for `N#Cc1nc(C(=O)NCCCCC(=O)O)c(O)c2cc(-c3ccccc3)c(=O)n(Cc3ccccc3)c12` [Example 24, 5-[(1-Benzyl-8-cyano-5-hydroxy-2-oxo-3-phenyl-1,2-dihydro-[1,7]naphthyridine-6-carbonyl)-amino]-pentanoic acid], the IC50 was over 200 µM.

`CNC(=O)c1nc(C#N)c2c(=O)n(Cc3ccccc3)ccc2c1O` [Example 38, 7-Benzyl-1-cyano-4-hydroxy-8-oxo-7,8-dihydro-[2,7]naphthyridine-3-carboxylic acid methylamide] gave an IC50 of over 200 µM.

On to `N#Cc1nc(C(=O)NC2CC2)c(O)c2ccn(Cc3ccccc3)c(=O)c12` [Example 39, 7-Benzyl-1-cyano-4-hydroxy-8-oxo-7,8-dihydro-[2,7]naphthyridine-3-carboxylic acid cyclopropylamide], for which the IC50 was over 200 µM.

For the compound `CNC(=O)c1nc(C#N)c2c(cc(-c3ccccc3)c(=O)n2Cc2ccccc2)c1O` [Example 41, 1-Benzyl-8-cyano-5-hydroxy-2-oxo-3-phenyl-1,2-dihydro-[1,7]naphthyridine-6-carboxylic acid methylamide], the IC50 is over 200 µM.

`N#Cc1nc(C(=O)NCc2ccncc2)c(O)c2ccn(Cc3ccccc3)c(=O)c12` [Example 48, 7-Benzyl-1-cyano-4-hydroxy-8-oxo-7,8-dihydro-[2,7]naphthyridine-3-carboxylic acid (pyridin-4-ylmethyl)-amide] came in with a half-inhibitory concentration (IC50) of 195 µM.

`CC(C)(CNC(=O)c1nc(C#N)c2c(=O)n(Cc3ccccc3)ccc2c1O)C(=O)O` [Example 50, 3-[(7-Benzyl-1-cyano-4-hydroxy-8-oxo-7,8-dihydro-[2,7]naphthyridine-3-carbonyl)-amino]-2,2-dimethyl-propionic acid] registered a half-inhibitory concentration (IC50) of over 200 µM.

`N#Cc1nc(C(=O)N[C@H](Cc2ccccc2)C(=O)O)c(O)c2ccn(Cc3ccccc3)c(=O)c12` [Example 51, (R)-2-[(7-Benzyl-1-cyano-4-hydroxy-8-oxo-7,8-dihydro-[2,7]naphthyridine-3-carbonyl)-amino]-3-phenyl-propionic acid] registered a 50% inhibitory concentration (IC50) of over 200 µM.

On to `N#Cc1nc(C(=O)NCCCCC(=O)O)c(O)c2ccn(Cc3ccccc3)c(=O)c12` [Example 52, 5-[(7-Benzyl-1-cyano-4-hydroxy-8-oxo-7,8-dihydro-[2,7]naphthyridine-3-carbonyl)-amino]-pentanoic acid], for which the 50% inhibitory concentration (IC50) is over 200 µM.

Compound `O=C(O)CCNC(=O)c1ncc2ccn(Cc3ccccc3)c(=O)c2c1O` [Example 54, 3-[(6-Benzyl-4-hydroxy-5-oxo-5,6-dihydro-[2,6]naphthyridine-3-carbonyl)-amino]-propionic acid] returned an IC50 of 181 µM.

`N#Cc1nc(C(=O)N[C@@H](Cc2ccccc2)C(=O)O)c(O)c2ccn(Cc3ccccc3)c(=O)c12` [Example 56, (S)-2-[(7-Benzyl-1-cyano-4-hydroxy-8-oxo-7,8-dihydro-[2,7]naphthyridine-3-carbonyl)-amino]-3-phenyl-propionic acid]: the IC50 is over 200 µM.

As to `N#Cc1nc(C(=O)NCCN2CCOCC2)c(O)c2ccn(Cc3ccccc3)c(=O)c12` [Example 59, 7-Benzyl-1-cyano-4-hydroxy-8-oxo-7,8-dihydro-[2,7]naphthyridine-3-carboxylic acid (2-morpholin-4-yl-ethyl)-amide], the IC50 is over 200 µM.

As to `N#Cc1nc(C(=O)NCc2ccnnc2)c(O)c2ccn(Cc3ccccc3)c(=O)c12` [Example 60, 7-Benzyl-1-cyano-4-hydroxy-8-oxo-7,8-dihydro-[2,7]naphthyridine-3-carboxylic acid (pyridazin-4-ylmethyl)-amide], the midpoint of inhibition, the IC50, lay at 177 µM.

The compound `N#Cc1nc(C(=O)NCC2(C(=O)O)CCC2)c(O)c2ccn(Cc3ccccc3)c(=O)c12` [Example 62, 1-{[(7-Benzyl-1-cyano-4-hydroxy-8-oxo-7,8-dihydro-[2,7]naphthyridine-3-carbonyl)-amino]-methyl}-cyclobutanecarboxylic acid] registered an IC50 of 182 µM.

On to `O=C(O)CCNC(=O)c1ncc2ccc(=O)n(Cc3ccccc3)c2c1O` [Example 70, 3-[(1-Benzyl-8-hydroxy-2-oxo-1,2-dihydro-[1,6]naphthyridine-7-carbonyl)-amino]-propionic acid], for which the IC50 was 167 µM.

Turning to `CC(C)(CNC(=O)c1ncc2ccc(=O)n(Cc3ccccc3)c2c1O)C(=O)O` [Example 71, 3-[(1-Benzyl-8-hydroxy-2-oxo-1,2-dihydro-[1,6]naphthyridine-7-carbonyl)-amino]-2,2-dimethyl-propionic acid], the half-inhibitory concentration (IC50) is over 200 µM.

Compound `CCCNC(=O)CCCNC(=O)c1nc(C#N)c2c(=O)n(Cc3ccccc3)ccc2c1O` [Example 73, 7-Benzyl-1-cyano-4-hydroxy-8-oxo-7,8-dihydro-[2,7]naphthyridine-3-carboxylic acid (3-propylcarbamoyl-propyl)-amide] displayed an IC50 of over 200 µM.

`CNC(=O)c1ncc2ccc(=O)n(Cc3ccccc3)c2c1O` [Example 75, 1-Benzyl-8-hydroxy-2-oxo-1,2-dihydro-[1,6]naphthyridine-7-carboxylic acid methylamide] gave an IC50 of over 200 µM.

For the compound `COc1ccc(Cn2ccc3c(O)c(C(=O)NCCc4ccccc4)ncc3c2=O)c(OC)c1` [Example 76, 7-(2,4-Dimethoxy-benzyl)-4-hydroxy-8-oxo-7,8-dihydro-[2,7]naphthyridine-3-carboxylic acid phenethyl-amide], the IC50 was over 200 µM.

As to `COc1ccc(Cn2ccc3c(O)c(C(=O)NCc4ccc(F)cc4)ncc3c2=O)c(OC)c1` [Example 78, 7-(2,4-Dimethoxy-benzyl)-4-hydroxy-8-oxo-7,8-dihydro-[2,7]naphthyridine-3-carboxylic acid 4-fluoro-benzylamide], the IC50 is over 200 µM.

For the compound `CNC(=O)c1nc(C#N)c2ccc(=O)n(Cc3ccccc3)c2c1O` [Example 79, 1-Benzyl-5-cyano-8-hydroxy-2-oxo-1,2-dihydro-[1,6]naphthyridine-7-carboxylic acid methylamide], the IC50 is over 200 µM.

Take `O=C(NCc1nnn[nH]1)c1ncc2ccc(=O)n(Cc3ccccc3)c2c1O` [Example 82, 1-Benzyl-8-hydroxy-2-oxo-1,2-dihydro-[1,6]naphthyridine-7-carboxylic acid (1H-tetrazol-5-ylmethyl)-amide]: the IC50 is 138 µM.

In turn, `CC(C)(CNC(=O)c1nc(-c2cncc(F)c2)c2c(=O)n(Cc3ccccc3)ccc2c1O)C(=O)O` [Example 88, 3-{[7-Benzyl-1-(5-fluoro-pyridin-3-yl)-4-hydroxy-8-oxo-7,8-dihydro-[2,7]naphthyridine-3-carbonyl]-amino}-2,2-dimethyl-propionic acid] had an IC50 of over 200 µM.

In turn, `CC(C)NC(=O)NCCNC(=O)c1ncc2c(=O)n(Cc3ccccc3)ccc2c1O` [Example 89, 7-Benzyl-4-hydroxy-8-oxo-7,8-dihydro-[2,7]naphthyridine-3-carboxylic acid [2-(3-isopropyl-ureido)-ethyl]-amide] registered an IC50 of over 200 µM.

`CC(=O)NCCNC(=O)c1nc(C#N)c2ccc(=O)n(Cc3ccccc3)c2c1O` [Example 95, 1-Benzyl-5-cyano-8-hydroxy-2-oxo-1,2-dihydro-[1,6]naphthyridine-7-carboxylic acid (2-acetylamino-ethyl)-amide]: the IC50 was 134 µM.

The values are drawn from patent publication US8921389B2, “Naphthyridine derivatives as inhibitors of hypoxia inducible factor (HIF) hydroxylase” (Fibrogen, Inc., priority 2011, dated 2014).
